Experimental data taken from patent publication US20250352524A1, “PREVENTION OF METASTATIC OUTGROWTH USING TEAD INHIBITORS” (Georgetown University, priority 2024, published 2025).

System: 4T1 cells
Test: 4T1 cells injected into tail vein of BALB/c mice, lung metastasis and T-cell profiling
Assay type: in vivo
Method: There was no difference in the primary tumor size between treatment groups nor the size of recurrent tumors at 6 weeks (FIG. 9, Panel B and FIG. 8, Panel C). […] To investigate tissue specific effects, gene expression changes between treatment groups in lung and tumor tissues were analyzed by RNA-sequencing. […] To reduce the impact of TEAD inhibition on cancer cell intrinsic function such as dissemination and invasion, 4T1, a triple negative mouse mammary carcinoma cell line (Pulaski & Ostrand-Rosenberg, 2000), was injected into the tail vein of BALB/c mice that directly seed into the lung tissue. A reduction in lung metastases, as well as the suppression of inflammatory pathways, were observed (FIG. 9, Panels E and F, and FIG. 8, Panel F).
To determine early changes in the T-cell population, lung and spleen tissues of BALB/c mice that were intravenously injected with 4T1 were processed and analyzed by flow cytometry 10 days post inoculation (FIG. 9, Panel E). […] M1-like macrophages and IL12 signaling play a critical role in the crosstalk between macrophages and T-cells triggering their proliferation and differentiation of T-cell subsets that can eliminate tumor cells unlike the pro-tumor M2-like macrophages (Guerriero, 2019; Oishi et al., 2016; Shao et al., 2023). Thus, the interplay between macrophage and T-cells after iTEAD treatment is likely to play a role in the increase in CD8+ T-cell and Th1 CD4+ cell populations in the lungs.
Formalin-fixed, paraffin embedded (FFPE) lung tissue sections were stained with hematoxylin and eosin. Immunohistochemistry staining was performed on FFPE tumor and lung tissue sections. Slides were deparaffinized in xylene and rehydrated following a series of ethanol washes. Heat-induced antigen retrieval was then performed by placing slides in warmed sodium citrate buffer (pH 6.0) (Invitrogen, 005000) in a pre-heated steamer for 20 minutes. Slides were cooled at room temperature for an additional 20 minutes, prior to quenching endogenous peroxidase activity using 3% hydrogen peroxide buffer (Fisher, BP2633500) for 10 minutes. Next, slides were incubated overnight at 4° C. with either anti-CD8 (Cell Signaling Technology, #98941), anti-CD68 (Abcam, ab303565), anti-CD206 (Cell Signaling Technology, #24595), or anti-F480 (Cell Signaling Technology, #70076). Following PBS washes, the slides are then stained with a biotinylated secondary antibody using the VECTASTAIN Elite ABC-HRP Kit according to the user's manual (Vector Laboratories, PK-6101). Positive brown staining was produced by applying ImmPACT DAB EqV Substrate Kit (Vector Laboratories, SK-4103) to the slides, which were then counterstained with hematoxylin (Sigma, MHS16). Images were captured using the Olympus BX40 microscope, and positive staining was quantified manually. Immunofluorescent staining was performed on lung tissue sections. Slides were baked at 60°, deparaffinized in xylene, rehydrated, washed in DI water and incubated with 10% neutral buffered formalin (NBF) for an additional 20 minutes to increase tissue-slide retention. Epitope retrieval/microwave treatment (MWT) for all antibodies was performed by boiling slides in Antigen Retrieval buffer 6 (AR6 pH6, Akoya AR6001KT). Protein blocking is performed using antibody diluent/blocking buffer (Akoya, ARD1001EA) for 10 minutes at room temperature. […] Slides were scanned at 10× magnification using the Vectra 3.0 Automated Quantitative Pathology Imaging System (PerkinElmer/Akoya). […]

VT107
inflammatory pathways in lungs (30 mg/kg VT107 daily): suppression
lung metastases (30 mg/kg VT107 daily by oral gavage vs vehicle): reduction
T-bet staining in the lungs (IHC, week 2): significant increase
overall abundance of CD4+ and CD8+ T-cell populations (flow cytometry 10 days post inoculation): no difference
helper 1 T-cell (Th1) population (flow cytometry 10 days post inoculation, lung): increased
